Source: patent US11419333B2, “Compositions and methods for biofilm removal” (ChampionX USA Inc., priority 2018, dated 2022)

System: Pseudomonas aeruginosa
Test: Biocide test of quats in combination with THPS (ACCUCOUNT ATP)
Assay type: cell-based
Conditions: 400 ppm (active) quat with addition of 8% THPS, compared to untreated sample
Procedure: The ability of POLY SUGA quats to act as biocides was tested. […] Each quat was compared to an untreated sample as well as a sample treated with a nonpolymeric cationic quat used as a positive control. Each test contained Pseudomonas aeruginosa, grown to a final density of 1×E8 per mL of cells in 3% sodium chloride containing growth medium. 400 ppm (active) of each quat was added to the mix and incubated for 4 and 24 hrs. After this time, 10 ml aliquots of each sample were drawn for analysis.
Active microbial populations were estimated using the ACCUCOUNT method. ACCUCOUNT uses ATP concentrations measured using fluorescence to indirectly quantitate the number of active microbes in a given sample. It is assumed that each cell contains 1 fg of ATP. By correlating the detected fluorescence to a known concentration of standard-the number of bacterial cells/mL is estimated.
The ability of each quat to act together with a known biocide to reduce microbial populations was tested. […] THPS alone and a non-polymeric cationic quat+THPS were used as positive controls.

In the case of “tetrakis(hydroxymethyl)phosphonium sulfate [THPS]”, the “% reduction in bacteria” value (4 Hrs.) is reported as 89.75% and the “% reduction in bacteria” value (24 Hrs.) is reported as 91.73%.
